ChEMBL document CHEMBL1201862, “PubChem BioAssay data set” (2004)
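Briefly, cells in 96-well plates were exposed to five compound concentrations for 48 h, and endpoints were estimated by linear interpolation. Here, GI50 denotes the concentration required for 50% inhibition of growth.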 The source made the active and inactive calls. Rule as the data show it: active = GI50 up to about 1.1 µM and inactive = higher.

Columns and labels:
Assay in all cases: inhibition of tumour cell growth, NCI panel, 48 h
OVCAR-8 = test system: OVCAR-8
NCI-H460 = test system: NCI-H460
CAKI-1 = test system: CAKI-1
ACHN = test system: ACHN
SF-295 = test system: SF-295
TK-10 = test system: TK-10
RPMI-8226 = test system: RPMI-8226
M14 = test system: M14
Hs-578T = test system: Hs-578T
DU-145 = test system: DU-145
LOX IMVI = test system: LOX IMVI
IGROV-1 = test system: IGROV-1
OVCAR-4 = test system: OVCAR-4
NCI-H522 = test system: NCI-H522
OVCAR-5 = test system: OVCAR-5
UACC-257 = test system: UACC-257
786-0 = test system: 786-0
CCRF-CEM = test system: CCRF-CEM
HL-60 = test system: HL-60

Measured: GI50

CSc1nc2c(c(N(C)C)n1)C=Nn1c(nc3ccccc31)S2
inactive: OVCAR-8 74.3 µM | NCI-H460 89.1 µM | CAKI-1 > 100 µM | ACHN 61.2 µM | SF-295 > 100 µM | TK-10 > 100 µM | RPMI-8226 > 100 µM | M14 > 100 µM | Hs-578T 41.4 µM | DU-145 78 µM | LOX IMVI 76.2 µM | IGROV-1 > 100 µM | OVCAR-4 81.8 µM | NCI-H522 55.5 µM | OVCAR-5 > 100 µM | UACC-257 99.1 µM | 786-0 65 µM

CCN(CC)CCC1(C(=O)OC)SCCc2ccc(C)cc21 (stereo unspecified)
inactive: OVCAR-8 > 100 µM | NCI-H460 > 100 µM | CAKI-1 > 100 µM | ACHN > 100 µM | SF-295 > 100 µM | TK-10 > 100 µM | RPMI-8226 > 100 µM | M14 > 100 µM | Hs-578T > 100 µM | DU-145 > 100 µM | LOX IMVI > 100 µM | CCRF-CEM > 100 µM | IGROV-1 > 100 µM | OVCAR-4 > 100 µM | NCI-H522 > 100 µM | OVCAR-5 > 100 µM | UACC-257 > 100 µM | 786-0 > 100 µM

C#CCNCC(=O)O
inactive: OVCAR-8 > 100 µM | CAKI-1 > 100 µM | ACHN > 100 µM | SF-295 > 100 µM | TK-10 > 100 µM | RPMI-8226 > 100 µM | M14 > 100 µM | Hs-578T > 100 µM | DU-145 > 100 µM | CCRF-CEM > 100 µM | IGROV-1 > 100 µM | OVCAR-4 > 100 µM | NCI-H522 > 100 µM | OVCAR-5 > 100 µM | UACC-257 > 100 µM | 786-0 > 100 µM

O=c1cc(N2CCOCC2)[nH]c(=O)n1-c1cccc(C(F)(F)F)c1
inactive: OVCAR-8 > 100 µM | NCI-H460 > 100 µM | CAKI-1 > 100 µM | ACHN > 100 µM | SF-295 > 100 µM | TK-10 > 100 µM | M14 > 100 µM | Hs-578T > 100 µM | DU-145 > 100 µM | LOX IMVI > 100 µM | CCRF-CEM > 100 µM | IGROV-1 > 100 µM | OVCAR-4 > 100 µM | NCI-H522 > 100 µM | OVCAR-5 > 100 µM | UACC-257 > 100 µM | 786-0 > 100 µM | HL-60 > 100 µM

[N-]=[N+]=NC1=NNC2(C(=O)N1)c1ccccc1-c1ccccc12
inactive: OVCAR-8 > 100 µM | NCI-H460 > 100 µM | CAKI-1 > 100 µM | ACHN > 100 µM | SF-295 > 100 µM | TK-10 > 100 µM | M14 > 100 µM | Hs-578T 27.6 µM | DU-145 > 100 µM | LOX IMVI > 100 µM | CCRF-CEM > 100 µM | IGROV-1 > 100 µM | OVCAR-4 > 100 µM | NCI-H522 > 100 µM | OVCAR-5 > 100 µM | UACC-257 > 100 µM | 786-0 > 100 µM | HL-60 > 100 µM

S=C1N(/N=C/c2c3ccccc3cc3ccccc23)C(=N\c2ccccc2)/C(=N/c2ccccc2)N1c1ccccc1
inactive: OVCAR-8 > 100 µM | NCI-H460 > 100 µM | CAKI-1 > 100 µM | SF-295 > 100 µM | TK-10 > 100 µM | RPMI-8226 > 100 µM | M14 > 100 µM | Hs-578T > 100 µM | DU-145 > 100 µM | IGROV-1 > 100 µM | NCI-H522 > 100 µM | OVCAR-5 > 100 µM | UACC-257 > 100 µM | 786-0 > 100 µM
